This is an account of results in US8461145B2 (priority 2007, dated 2013).

Molecules are shown by their SMILES.

The target of one assay is Human TRPA1 (Homo sapiens, UniProt O75762). Briefly: cell-based.
Human TRPA1, sequence (O75762 whole entry, looked up): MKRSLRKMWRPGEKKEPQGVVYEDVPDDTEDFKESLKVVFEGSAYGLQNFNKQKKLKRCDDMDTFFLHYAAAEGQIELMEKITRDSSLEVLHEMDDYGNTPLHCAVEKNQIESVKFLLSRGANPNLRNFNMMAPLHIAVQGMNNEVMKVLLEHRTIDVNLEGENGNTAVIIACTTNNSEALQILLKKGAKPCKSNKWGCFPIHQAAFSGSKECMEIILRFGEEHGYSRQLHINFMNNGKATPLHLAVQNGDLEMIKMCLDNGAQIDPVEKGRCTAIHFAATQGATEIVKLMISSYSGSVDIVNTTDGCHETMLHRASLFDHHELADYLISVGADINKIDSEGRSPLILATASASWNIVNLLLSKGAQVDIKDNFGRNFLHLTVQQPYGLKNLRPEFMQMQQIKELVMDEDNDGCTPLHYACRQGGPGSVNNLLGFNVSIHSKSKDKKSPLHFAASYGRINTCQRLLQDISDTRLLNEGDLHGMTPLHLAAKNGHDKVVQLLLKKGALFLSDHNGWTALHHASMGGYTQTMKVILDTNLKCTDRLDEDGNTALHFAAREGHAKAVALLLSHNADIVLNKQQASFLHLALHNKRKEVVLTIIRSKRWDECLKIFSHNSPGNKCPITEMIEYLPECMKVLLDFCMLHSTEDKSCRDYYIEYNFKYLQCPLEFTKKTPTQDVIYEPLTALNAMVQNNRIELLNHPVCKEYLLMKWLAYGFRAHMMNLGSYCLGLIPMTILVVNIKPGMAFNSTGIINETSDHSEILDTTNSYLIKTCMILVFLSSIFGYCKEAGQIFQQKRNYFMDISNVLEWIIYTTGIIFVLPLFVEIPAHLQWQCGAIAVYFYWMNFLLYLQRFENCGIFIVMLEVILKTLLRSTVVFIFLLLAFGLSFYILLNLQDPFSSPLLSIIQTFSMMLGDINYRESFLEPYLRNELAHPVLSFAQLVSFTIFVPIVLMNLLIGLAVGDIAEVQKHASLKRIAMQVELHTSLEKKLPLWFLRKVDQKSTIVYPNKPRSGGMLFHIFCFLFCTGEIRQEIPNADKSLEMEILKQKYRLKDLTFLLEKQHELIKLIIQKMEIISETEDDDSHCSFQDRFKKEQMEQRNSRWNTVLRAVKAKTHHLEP
Conditions: not given
Take `COC(=O)c1ccc2c(c1)Cc1ccccc1C=N2` [Compound 3]: the “pEC50 values for TRPA1 agonism” value is reported as 9.24.
On the same count and under the same terms, the value for `COC(=O)c1ccc2c(c1)Oc1ccccc1N=C2` [Compound 10] was 7.28.
The same measure, in the same setting: the value for `COC(=O)c1cccc2c1Oc1ccccc1N=C2` [Compound 12] was 10.22; that for `CCCCOC(=O)c1cccc2c1Cc1ccccc1N=C2` [Compound 13] was 8.07; that for `COC(=O)c1cccc2c1Cc1ccccc1C=N2` [Compound 17] was 9.24.
Still for that read-out and setting: under `NC(=O)c1cccc2c1Oc1ccccc1N=C2` [Compound 21] stands 10.12; under `COC(=O)c1cccc2c1Oc1ccccc1C=N2` [Compound 23], 9.93.

Still in this assay, the particulars now being: pEC50 values for TRPA1 agonism.
One may read the EC50 as the concentration at which the effect is half-maximal. In turn, `COC(=O)c1ccc2c(c1)C=Nc1ccccc1C2` [Compound 1] gave an EC50 of 93.3 nM. In other words, the double-digit nanomolar range.
The same measure, in the same setting: the value for `O=C(O)c1cccc2c1Cc1ccccc1N=C2` [Compound 4] was 363 nM.
Same read-out and setting: under `CCN(CC)C(=O)c1cccc2c1Cc1ccccc1N=C2` [Compound 5] stands 44.7 nM; under `COCCCNC(=O)c1cccc2c1Cc1ccccc1N=C2` [Compound 6], 8.71 nM; under `COCCCNC(=O)c1cccc2c1Cc1ccccc1N=C2` [Compound 7], 5.89 nM.
On the same count and under the same terms, the value for `CN1CCN(C(=O)c2ccc3c(c2)Cc2ccccc2C=N3)CC1` [Compound 8] was 3.16 nM; that for `COC(=O)c1cccc2c1Oc1ccccc1N=C2` [Compound 11] was 0.0813 nM.
The molecule `CCCCOC(=O)c1cccc2c1Cc1ccccc1N=C2` [Compound 14] showed an EC50 of 5.62 nM.
On the same count and under the same terms, under `CN1CCN(C(=O)c2ccc3c(c2)Cc2ccccc2N=C3)CC1` [Compound 15] stands 1620 nM; under `COC(=O)c1cccc2c1N=Cc1ccccc1C2` [Compound 18], 27.5 nM; under `COC(=O)c1cccc2c1C=Nc1ccccc1C2` [Compound 19], 28.8 nM.
The same measure, in the same setting: the value for `COC(=O)c1ccc2c(c1)N=Cc1ccccc1C2` [Compound 20] was 28.2 nM; that for `COC(=O)c1cccc2c1Oc1ccccc1C=N2` [Compound 24] was 0.0741 nM; that for `COC(=O)c1cccc2c1Cc1ccccc1C=N2` [Compound 25] was 0.447 nM.
Still for that read-out and setting: under `COC(=O)c1cccc2c1N=Cc1ccccc1C2` [Compound 26] stands 38 nM.
